Measured values: US8791110B2 (priority 2006, dated 2014)
Read-outs that look alike come from different tables or passages of the source. Numbered stars: 1 amine (or outer) side, 2 acyl side, 3 side chain; on linkers, the order of the positions; unused ones are H or OH. Bridge positions count the residues as written; N and C are the ends. Square brackets hold non-standard residues; d marks the D form. Peptide text beside a SMILES is read from it. I, II: the chains in the order shown. Actinocin(9to1) = Cc1c2oc3c(C)ccc(C(=O)[*:1])c3nc-2c(C(=O)[*:2])c(N)c1=O; NMeV = CN[C@H](C(=O)O)C(C)C; Sar = CNCC(=O)O

Columns and labels:
[1] = system: Candid 1; test: organism not typed; type: cell-based, Junín virus; settings: read-out: EC50 Candid 1
[2] = in vitro; settings: African green monkey
[3] = system: Vero cells
[4] = system: Tacaribe (TRVL 11573) virus; test: microbe, parasite or virus in culture; type: cell-based; settings: Mammarenavirus tacaribeense, Vero
[5] = system: Machupo virus; test: microbe, parasite or virus in culture; type: cell-based; settings: Mammarenavirus machupoense, Vero, 120 h, read-out: EC50 Category A NWA, Machupo
[6] = system: Guanarito virus; test: microbe, parasite or virus in culture; type: cell-based; settings: Mammarenavirus guanaritoense, Vero, 120 h, read-out: EC50 Category A NWA, Guanarito
[7] = system: Arenavirus; settings: cited from earlier work
[8] = in vivo; cited from earlier work
[9] = in vivo; cited from earlier work; remark: listed apart in the source

With CN1CCN(C(=O)Nc2ccc(Cl)c(Cl)c2)CC1 [Compound 20013] as the compound, how does the EC50 [1] read?
Its EC50 is > 50000 nM.

And the CC50 [2]?
The CC50 was > 50 µM.

What about the CC50 ([3]; African green monkey) of the same compound?
The CC50 was > 50 µM.

And the EC50 ([4]; 168 h, read-out: EC50 Tacaribe)?
The EC50 was > 50000 nM.

For CN1CCN(C(=S)Nc2ccc(Cl)c(Cl)c2)CC1 [Compound 313761, 4-methyl-piperazine-1-carbothioic acid (3,4-dichlorophenyl)-amide], which EC50 [5] is on record?
The EC50 was 300 nM.

And the EC50 [1]?
Its EC50 is 260 nM.

What about the CC50 [2] of the same compound?
The CC50 was 50 µM.

What about the “toxicity / effect on cell growth at antiviral concentrations” value [3] of the same compound?
The value was “active at non-toxic concentrations”.

What about the EC50 [6] of the same compound?
The EC50 was 150 nM.

And the EC50 ([4]; 168 h, read-out: EC50 Tacaribe)?
The EC50 was 140 nM.

What about the EC50 ([4]; read-out: EC50 value in the CPE assay) of the same compound?
The EC50 was 140 nM.

Which anti-Arenavirus activity [7] does the source give for Cc1c2oc3c(C)ccc(C(=O)N[C@@H]4C(=O)N[C@H](C(C)C)C(=O)N5CCC[C@H]5C(=O)N(C)CC(=O)N(C)[C@@H](C(C)C)C(=O)O[C@@H]4C)c3nc-2c(C(=O)N[C@@H]2C(=O)N[C@H](C(C)C)C(=O)N3CCC[C@H]3C(=O)N(C)CC(=O)N(C)[C@@H](C(C)C)C(=O)O[C@@H]2C)c(N)c1=O [actinomycin D] (I: T[dV]P[Sar][NMeV] / II: T[dV]P[Sar][NMeV]; ester I:1-I:C, II:1-II:C; linker I:N-II:N via Actinocin(9to1)) here?
The anti-Arenavirus activity was “generally weak and non-specific”.

For NC12CC3CC(CC(C3)C1)C2 [amantadine], which anti-Arenavirus activity [7] is on record?
The anti-Arenavirus activity was “generally weak and non-specific”.

For CN(C)CCCN1c2ccccc2Sc2ccc(Cl)cc21 [chlorpromazine], which anti-Arenavirus activity [7] is on record?
The anti-Arenavirus activity was “generally weak and non-specific”.

For NC(=O)c1ncn([C@@H]2O[C@H](CO)[C@@H](O)[C@H]2O)n1 [ribavirin, Ribavirin], which reproductive toxicity [8] is on record?
The reproductive toxicity was “teratogenicity and embryo lethality”.

And the adverse effects [9]?
The adverse effects was “dose-related, reversible hemolytic anemia”.

With CN1CCN(CCCN2c3ccccc3Sc3ccc(C(F)(F)F)cc32)CC1 [trifluoroperazine] as the compound, how does the anti-Arenavirus activity [7] read?
The anti-Arenavirus activity was “generally weak and non-specific”.
